According to US20120035187A1 (priority 2009, published 2012):
Marks after values point to notes of the source that are not given here.

What was measured:
Type in all cases: in vivo, hamster
[1] = system: hamsters with cerebellar ataxia; assay: Rotarod test in hamsters with cerebellar ataxia; settings: for Delayed days until the onset of cerebellar ataxia in hamster: 25 μg/kg body weight; for time (sec) endured until falling from rotarod apparatus: cerebellar ataxia hamsters, 25 μg/kg body weight i.p. once a day
From the text: (§1) Since NK-4 was confirmed to have a neurodegenerative inhibitory action in Experiment 1, hamsters with cerebellar ataxia (cerebellar ataxia is called “cerebellar A” and hamsters with cerebellar ataxia are called “hamsters with cerebellar A”, hereinafter) as a suitable model for human neurodegenerative diseases (e.g., spinal cerebellar degeneration) were subjected to examine the influence of NK-4 administration on their behaviors and brain tissues. Twenty-five hamsters with natural mutation (Nna1 inhibition), which are known to lose Purkinje's cells after three-weeks of age and then induce a spontaneous onset of kinetic motor ataxia after seven-weeks of age (see Akita K. et al., “J. Neurogenetics”, Vol. 21, pp. 19-29, 2007), had been fed at Hayashibara Biochemical Laboratories., Inc., Okayama, Japan, were randomly allocated to the test groups 1 to 5, five heads in each group, as shown in Table 2. Prior to the onset of cerebellar A (at three-weeks of age), PBS was started to administer to the hamsters in the test group 1 at a dose of 10 ml/kg/day. Prior to the onset of cerebellar A (at three-weeks of age), NK-4 was started to be administered to the hamsters in the test groups 2 to 4 at a daily dose of 20 μg/kg, 100 μg/kg or 500 μg/kg. “IGF-1, human, a product name of insulin-like growth factor, commercialized by Assaypro LLC, MO, USA. These administered ingredients were intraperitoneally administered daily to hamsters once a day up to 10-weeks of age. The degree of symptom of cerebellar A and the improvement effect on the symptom by NK-4 were evaluated with an index of improvement in motor coordination of hamsters by conducting once a week the later described rotarod test and the slant tolerance test. At the age of 10-weeks, the hamsters were subjected to counting the falling down frequency and extracted their brains, which were then histologically evaluated. In parallel, the concentration of glutamic acid in the bloods and cerebrospinal fluids (CSF) of the hamsters was assayed. As a test group 6, five normal hamsters, with the same age as the hamsters with cerebellar A used in the test groups 1 to 5, were provided and tested similarly as the hamsters with cerebellar A in such a manner of intraperitoneally administering PBS to them at a dose of 10 ml/kg/day once a day up to 10-weeks of age.
As an index for coordinated movement, it was used a duration time of hamster's movement to staying on a rotarod by locomotion in synchronization with the turn of the rotarod; placing a hamster on an apparatus with a rotarod (having a diameter of 60 mm, prepared by Hayashibara Biochemical Laboratories, Inc., Okayama, Japan), turning at a constant rate of six rpm, and measuring the time until the hamster falls down from the rotarod (see Fernandez et al., “Proc. Natl. Acad. Sci. USA”, Vol. 95, pp. 1253-1258, 1998). The test was repeated six times for each hamster, where five-times of tests starting from the initiation of the test were made as a preliminary examination, and the time until each hamster fell down from the rotarod (called “falling time”, hereinafter) was measured, followed by averaging the falling times for each group consisting of five heads. The falling time was measured until 180 seconds. Based on the results, the relationship between the age and the falling time for each hamster with cerebellar A (test group 1) administered with PBS was graphed. […]
Similarly as in Experiment 2, 130 hamsters with cerebellar ataxia, born within the same week and 3-weeks of age, were randomly divided into 13 groups, consisting of 10 hamsters, respectively. […]

[2] = system: hamsters with cerebellar ataxia; assay: Slant tolerance test in hamsters with cerebellar ataxia; settings: cerebellar ataxia hamsters, 25 μg/kg body weight i.p. once a day
From the text: as §1
Hamsters were placed on a slope-angle-variable-board while keeping their heads upward, followed by determining the angle for allowing the hamsters to keep staying thereupon for five seconds for use as an endurable-slant-slope-angle test (see Rivlin et al., “J. Neurosurg.”, Vol. 47, pp. 577-581, […]). The initial slope angle was set to 25 degrees and increased by 5 degrees step by step. When a tested hamster in a static condition fell down within five seconds, the slope angle was decreased by one degree step by step, followed by judging the angle that allows the hamster to keep static staying for five seconds, measuring the tolerable slant-slope-angle, and averaging the data for five heads in each group.
(§2) Similarly as in Experiment 2, 130 hamsters with cerebellar ataxia, born within the same week and 3-weeks of age, were randomly divided into 13 groups, consisting of 10 hamsters, respectively. […] The hamsters (10 heads) in the remaining one group were intraperitoneally administered from their age of 3- to 10-weeks with a sterilized 10% maltose solution (pyrogen-free) in an amount of 0.5 ml/hamster (control) once a day for 56 days At the next day after the end of the administration, body weight of each hamster was weighed, followed by performing rotarod test, slope endurance test, and counting of falling down frequency. The types of compounds applied to each group and the results are in Table 25.

[3] = system: hamsters with cerebellar ataxia; assay: Falling down frequency of hamsters with cerebellar ataxia; settings: cerebellar ataxia hamsters, 10-weeks of age; 25 μg/kg body weight i.p. once a day
From the text: as §1
Hamsters, 10-weeks of age, were respectively housed in a breeding cage. Their falling down frequencies within one minute were counted under a macroscopic observation and the data from five heads in each group were averaged. For reference, the hamsters with cerebellar A used in this experiment are known to increase their falling down frequencies after nine weeks of age.
as §2

[4] = system: hamsters with cerebellar ataxia; assay: Histological evaluation of cerebellum of hamsters with cerebellar ataxia; settings: 10-weeks of age, 25 μg/kg body weight
From the text: as §1
Hamsters, 10-weeks of age, after completion of test on coordinated movement such as a confirmation of falling down frequency were intraperitoneally received 50 mg/kg pentobarbital, bled from their postcavas to let them die, and extracted their cerebra and cerebella, followed by fixing them with a 10% by volume of formalin solution. The resulting cerebra and cerebella were photographed with a digital camera apart from a prescribed high position and measured diameters in sagittal and horizontal directions for each photograph. The volumes of cerebra and cerebella were respectively determined by calculating with the formula, (length of sagittal direction)^2×(length of horizontal direction)×0.5; and the data from five heads in each group were averaged. The hamsters with cerebella A used in this experiment are known to reduce cell density of Purkinje's cells and granular cells. Cerebellar slices, which had been cut out in sagittal direction, were stained with hematoxylin-eosin stain, and microscopically observed to count the total number of Purkinje's cells within a Purkinje's cell layer ([…] I to X) and the number of granular cells per unit area, and to confirm subjects in which demyelination was observed within their cerebellar white matters. The results are in Table 5 in parallel.

[5] = system: hamsters with cerebellar ataxia; assay: Concentration of glutamic acid in cerebrospinal fluid (CSF); settings: 10-weeks of age, 25 μg/kg body weight
From the text: as §1
The content of glutamic acid, which is used for synthesizing gamma-amino butyric acid (GABA) as a main excitatory neurotransmitter and inhibitory neurotransmitter that regulate higher-order functions such as memory/learning in mammalian central nervous system, was assayed. In harvesting the brains from the above hamsters, they were blooded from their postcavas, followed by collecting CSF for use in the later described assay for glutamic acid concentration. […]

[6] = Body weight of hamsters with cerebellar ataxia during administration; settings: compared between groups administered with PBS, NK-4 and IGF-1

## IGF-1: insulin-like growth factor, human, commercialized by Assaypro LLC
[1]; 5-Weeks
  Delayed days until the onset of cerebellar ataxia in hamster: 1 days
  time (sec) endured until falling from rotarod apparatus: 63 ± 13 s
[1]; 6-Weeks
  Delayed days until the onset of cerebellar ataxia in hamster: 8 days
  time (sec) endured until falling from rotarod apparatus: 43 ± 11 s
[1]; 7-Weeks
  Delayed days until the onset of cerebellar ataxia in hamster: 1 days
  time (sec) endured until falling from rotarod apparatus: 21 ± 5 s
[1]; 8-Weeks
  Delayed days until the onset of cerebellar ataxia in hamster: 1 days
  time (sec) endured until falling from rotarod apparatus: 9 ± 2 s
[1]; 9-Weeks
  Delayed days until the onset of cerebellar ataxia in hamster: 0 days
  time (sec) endured until falling from rotarod apparatus: 6 ± 1 s
[1]; 10-Weeks
  Delayed days until the onset of cerebellar ataxia in hamster: 0 days
  time (sec) endured until falling from rotarod apparatus: 6 ± 1 s
[1]; 4-Weeks
  time (sec) endured until falling from rotarod apparatus: 126 ± 11 s
[2]; 4-Weeks
  endurable-slant-slope-angle (degree): 44.4 ± 0.2 degree
[2]; 5-Weeks
  endurable-slant-slope-angle (degree): 41.8 ± 0.6 degree
[2]; 6-Weeks
  endurable-slant-slope-angle (degree): 40.2 ± 0.7 degree
[2]; 7-Weeks
  endurable-slant-slope-angle (degree): 41.6 ± 0.8 degree
[2]; 8-Weeks
  endurable-slant-slope-angle (degree): 35.6 ± 0.2 degree
[2]; 9-Weeks
  endurable-slant-slope-angle (degree): 35.2 ± 0.6 degree
[2]; 10-Weeks
  endurable-slant-slope-angle (degree): 33.0 ± 0.9 degree
[3]
  Falling down frequency (frequency/min): 11.4 ± 0.4 frequency/min
[4]; cerebellar ataxia hamsters
  Cerebellar volume (mm^3): 77.6 ± 6.1* mm^3
  Number of Purkinje cells (cells): 71 ± 16 cells
  Number of granular cells (cells/20000 μm^2): 371 ± 11 cells/20000 μm^2
[4]; five heads per group
  Number of subject (head) with apparent demyelination in cerebellar white matter: 3 head
[5]
  Concentration of glutamic acid in cerebrospinal fluid: 7.9 ± 2.0 µM
[6]
  body weight of hamsters with cerebellar A, weighed once every week up to 10-weeks of age: no significant difference
